In patent publication US20240287132A1, “PEPTIDE, COMPOSITION, AND GHRELIN SECRETION PROMOTING AGENT” (KYOTO UNIVERSITY, priority 2019, published 2024):

Experiments:
[1] = test system: Ghrelin-secreting cells (MGN3-1); assay: Ghrelin secretion activity evaluation (ghrelin in medium, ELISA); format: cell-based; details: MGN3-1 cells; for ghrelin secretion (ghrelin concentration in medium): peptide concentration 0.01, 0.1, or 1 mM, FIG. 2, n=4; for significance of ghrelin secretion promoting effect: peptide concentration of 1 mM or more, FIG. 2
Description: (§1) Ghrelin-secreting cells (MGN3-1) were seeded at 1×10^5 cells/well onto a 96-well plate and cultured in a sodium octanoate/DMEM medium at 37° C. for 24 hours. After the cultivation, the cells were washed with DPBS. A buffer solution of each peptide was prepared and, 100 μL of the buffer solution (with a peptide concentration of 1 mg/mL or 10 mg/mL) was added to the cells. The cells were further cultured at 37° C. for 4 hours. The buffer used contained 50 μM of sodium octanoate in DMEM.
Unless otherwise stated, all tests shown below were performed using, as a control, a culture obtained in the same manner as shown above except that only the buffer was added instead of the buffer solution of the peptide.
After the cultivation, the medium sample was collected and centrifuged to give a supernatant. Subsequently, 10 μL of 1 N HCl was added to the supernatant, and the resulting sample was stored at −80° C. until it was subjected to the ghrelin concentration measurement shown below.
The concentration of ghrelin in each medium sample was measured using an ELISA kit (Ghrelin (Acylated) EIA Kit A05117 (trade name) manufactured by Bertin Pharma SAS). The results shown in FIG. 1 are values relative to the measured value of the control.
The two peptides were evaluated for their effect on ghrelin secretion by the same method as shown above (Ghrelin Secretion Activity Evaluation 1).

[2] = test system: Ghrelin-secreting cells (MGN3-1); assay: Intracellular ghrelin level (Ghrelin Secretion Activity Evaluation 3); format: cell-based; details: MGN3-1 cells, FIG. 3A, n=4 or 5
Description: as §1
The peptide of SEQ ID NO: 1 was evaluated for its effect on ghrelin secretion (intracellular ghrelin level) by the same method as shown above (Ghrelin Secretion Activity Evaluation 1).

[3] = test system: ghrelin synthesis-related genes (Preproghrelin, GOAT, and PC3); assay: Evaluation of ghrelin synthesis-related gene expression (qPCR); format: cell-based; details: MGN3-1 cells, FIGS. 3B, 3C, 3D, n=4 or 5
Description: The expression levels of the three, ghrelin synthesis-related genes (Preproghrelin, GOAT, and PC3) in the cells obtained after the completion of the cultivation shown above (Ghrelin Secretion Activity Evaluation 1) were measured by the method shown below. First, mRNA was extracted from the cells using RNeasy Mini Kit (manufactured by QIA-GEN) and Takara PrimeScript RT Master Mix (manufactured by Takara Bio Inc.). Subsequently, the mRNA expression level was measured through the amplification of cDNA using LightCycler 96 System (manufactured by Roche Diagnostics K.K.) and THUNDERBIRD qPCR Mix (manufactured by Toyobo Co., Ltd.). The results are shown in FIG. 3B (Preproghrelin), FIG. 3C (GOAT), and FIG. 3D (PC3) (n=4 or 5).

[4] = test system: Ghrelin-secreting cells (MGN3-1); assay: Evaluation of intracellular CAMP level; format: cell-based; details: MGN3-1 cells, 0.5 mM IBMX, 37° C. 30 minutes, FIG. 4
Description: Ghrelin-secreting cells (MGN3-1) were […] in a Krebs-Ringer-HEPES buffer containing 0.5 mM IBMX. After the mixture was incubated at 37° C. for 30 minutes, the intracellular CAMP was quantified using HitHunter CAMP Assay for Small Molecules (manufactured by DiscoveRx).

[5] = test system: Ghrelin-secreting cells (MGN3-1); assay: Evaluation of intracellular calcium ion level; format: cell-based; details: data not shown
Description: The intracellular calcium ion level was measured using Calcium Kit II-Fluo 4 (Dojindo Laboratories) and a multi-plate reader (manufactured by BMG LABTECH GmbH, Aex: 485 nm, Xem: 520 nm).

[6] = test system: male ddY mice; assay: Evaluation 1 of eating behavior of mice (feed intake over 4 hours); format: in vivo; details: 11 weeks old male ddY mice, single oral dose 1 mg/kg, 4 hours after feeding, vs saline control, FIG. 5A
Description: Mice (11 weeks old male ddY mice) were orally administered with a single dose of a saline solution of the peptide of SEQ ID NO: 1 (1 mg/kg). Subsequently, a previously weighed feed (CE-2 (trade name) manufactured by CLEA Japan, Inc.) was given to the mice, and 4 hours after the feeding, the weight of the remaining feed was measured. A control test was also carried out in which the same procedure was carried out as shown above except that a single dose of saline was orally administered instead of the peptide of SEQ ID NO: 1. The amount of feed intake (g/4 hours) was defined as the difference between the weight of the feed given to the mice and the weight of the feed remaining 4 hours after the feeding.

[7] = test system: male ddY mice; assay: Evaluation of mouse serum ghrelin level; format: in vivo; details: 11 weeks old male ddY mice, 0.3 mg/kg, 1 hour after administration, FIG. 5B
Description: Mice (11 weeks old male ddY mice) were administered with a saline solution of the peptide of SEQ ID NO: 1 (0.3 mg/kg). Subsequently, 1 hour after the administration, blood was collected from the orbital vein of the mice and centrifuged at 4° C. at 1,120×g for 10 minutes. The resulting supernatant was acidified with 1 N HCl and then measured for serum ghrelin level (pg/ml) using an acylated ghrelin enzyme immunoassay kit.

[8] = test system: male ddY mice; assay: Evaluation 2 of eating behavior of mice (feed intake over 2 hours); format: in vivo; details: 7 weeks old male ddY mice, single oral dose 1 mg/kg, 2 hours after feeding, FIG. 6, *: P<0.05 relative to the control
Description: Mice (7 weeks old male ddY mice acclimated for at least 1 week before use after being purchased) were orally administered with a single dose of a saline solution of each peptide (1 mg/kg). Subsequently, a previously weighed feed (CE-2 (trade name) manufactured by CLEA Japan, Inc.) was given to the mice, and 2 hours after the feeding, the weight of the remaining feed was measured. A control test was also carried out in which the same procedure was carried out as shown above except that a single dose of saline was orally administered instead of each peptide. The amount of feed intake (g/2 hours) was defined as the difference between the weight of the feed given to the mice and the weight of the feed remaining 2 hours after the feeding. Based on the results, the amount of feed intake in the control group was normalized to 100, and the amount of feed intake in each group was calculated relative to 100. The results are shown in FIG. 6 (n=7 to 18, *: P<0.05 relative to the control).

Row | Substance | ghrelin secretion (ghrelin concentration in medium) [1] | significance of ghrelin secretion promoting effect [1] | amount of feed intake relative to control (control normalized to 100) [8] | further results
1 | QAFEPIRSV [SEQ ID NO: 1] | ghrelin secretion promoting effect | significant | increased | extracellular ghrelin level ([1]; data not shown): increased; intracellular ghrelin level [2]: tendency to reduce; expression levels of the ghrelin synthesis-related genes (Preproghrelin, GOAT, PC3 mRNA) [3]: not found to change; intracellular CAMP level [4]: no effect; intracellular calcium ion level [5]: no effect; amount of feed intake [6]: increased; serum ghrelin level [7]: increased
2 | QAFE [SEQ ID NO: 3] |  |  | significantly increased | 
3 | QGSF [SEQ ID NO: 7] |  |  | significantly increased | 
4 | HSPR [SEQ ID NO: 6] |  |  | significantly increased | 
5 | TNPWHSPROGSF (TNPWHSPRQGSF) [SEQ ID NO: 2] | ghrelin secretion promoting effect | significant | increased | 
6 | TNPW [SEQ ID NO: 5] |  |  | significantly increased | 
